Results published in patent EP2623495B1, “Positively charged water-soluble prodrugs of n-arylanthranilic acids with very fast skin penetration rate” (Techfields Biochem Co. Ltd, priority 2006, dated 2008).
Converted amounts (≈) assume the structure as drawn. Like-named read-outs stand apart in the source and are kept apart here.

What was measured:
Solubility in water = conditions: for solubility: solubility in water
[1] = J. Pharm. Sci., 82, 227(1993); cited from earlier work
[2] = Gastroduodenal bleeding (fecal blood) after oral administration for 21 days; conditions: rats, orally 50 mg/kg per day for 21 days
[3] = Analgetic activity: acetic acid writhing inhibition; assay type: in vivo; conditions: mice; for No. of Writhings: 100 mg/kg transdermally 60 minutes before acetic acid solution intraperitoneally, control group 35.0; for rate of writhings inhibition %: 100 mg/kg transdermally 60 minutes before acetic acid solution, based on the control group
Description: The group A is the control group. Table 1. The rate of writhings inhibition by prodrugs of arylanthranilic acids

[4] = Antipyretic activity after sterilized E. coli suspension as a pyrogen; assay type: in vivo; conditions: rats, 100 mg/kg transdermally 2 hours after E. coli pyrogen
Description: Antipyretic activity: Rats received a sterilized E. coli suspension as a pyrogen. […] The body temperature of rats was taken at 90 min. intervals before and after the administration of the test compounds. Table 2. Antipyretic Activity of prodrugs of arylanthranilic acids.

[5] = Acute toxicity, LD50 orally; conditions: mouse, in vivo, po; orally in mice; prodrugs
Description: The acute toxicity of the prodrugs was investigated.

[6] = Analgetic activity: prolongation time of the pain threshold of a mouse tail (D'Amour-Smith Method); assay type: in vivo, mice; conditions: 50mg/kg transdermally, mouse tails exposed to heat; Figure 3
Description: Analgetic activity: The prolongation time of the pain threshold of a mouse tail was determined in accordance with the D'Amour-Smith Method (J. Pharmacol. Exp. Ther., 72, 74(1941)). After 50mg/kg of these prodrugs were administered transdermally, the tails of mice were exposed to heat and the prolongation time of pain threshold was determined.
Group A is the control group. • Figure 4. The rate of swelling (%) after a carrageenin injection. […] Group A is the control group. • Figure 5.

[7] = In vivo penetration through the skin of intact hairless mice, plasma levels by HPLC; conditions: for peak plasma levels / time to peak levels after application of the donor systems: 20% solution in 1 mL of isopropanol on 10 cm^2 of the backs of hairless mice; for peak plasma levels: plasma levels of parent drug; for time to peak levels after application of the donor systems: transdermal; for difference in peak plasma levels, prodrugs versus parent drugs: topical application, hairless mice
Description: (§1) The in vivo rates of penetration of diethylaminoethyl 2-[(2,3-dimethylphenyl)amino]benzoate.AcOH, diethylaminoethyl 2-[(2,6-dichloro-3-methylphenyl)amino]benzoate.AcOH, diethylaminoethyl 2-[[(3-(trifluoromethyl)phenyl)amino]benzoate.AcOH, diethylaminoethyl 2-[[3-(trifluoromethyl)phenyl]amino]-3-pyridinecarboxylate.AcOH, and diethylaminoethyl 2-[[2-methyl-3-(trifluoromethyl)phenyl]amino]-3-pyridinecarboxylate.AcOH, mefenamic acid, meclofenamic acid, flufenamic acid, niflumic acid, and flunixin through the skin of intact hairless mice were compared. The donor consisted of a 20% solution of these compounds in 1 mL of isopropanol applied to a 10 cm^2 on the backs of the hairless mice. Plasma levels of mefenamic acid, meclofenamic acid, flufenamic acid, niflumic acid, and flunixin were determined by a specific high-performance liquid chromatography method.

[8] = In vitro penetration through human skin in modified Franz cells; assay type: in vitro ADME; conditions: for Apparent flux values: human skin 360-400 µm, donor 30% solution (prodrugs) or 30% suspension (parent drugs) in 2mL of pH 7.4 phosphate buffer (0.2M); for diffuses through human skin times faster than the parent drug: prodrug versus mefenamic acid, meclofenamic acid, flufenamic acid, niflumic acid, or flunixin
[9] = taken orally; cited from earlier work
physchem = conditions: water
[10] = cited from earlier work
[11] = rat, in vivo, po, 50 mg/kg/day, 21 days
[12] = hairless, mouse, in vivo
Description: as §1

[13] = parent drugs, given for comparison

## CC(=O)O.CCN(CC)CCNC(=O)c1ccccc1Nc1cccc(C)c1C [N-diethylaminoethyl 2-[(2,3-dimethylphenyl)amino] benzoamide.AcOH]
Solubility in water
  solubility in water: 400 mg/mL

## CCN(CC)CCNC(=O)c1ccccc1Nc1c(Cl)ccc(C)c1Cl [N-diethylaminoethyl 2-[(2,6-dichloro-3-methylphenyl)amino] benzoamide.AcOH]
Solubility in water
  solubility: 400 mg/mL (≈ 1010 mM)

## CN(C)CCCC(=O)O[C@H]1CC[C@H]2[C@@H]3CCC4=CC(=O)CC[C@]4(C)[C@H]3CC[C@]12C.Cl [TSBH, testosteronyl-4-dimethylaminobutyrate.HCl]
[1]
  diffuses through human skin times faster than the drug (TS) itself: ~60 times

## CCN(CC)CCOC(=O)c1ccccc1Nc1cccc(C)c1C [diethylaminoethyl 2-[(2,3-dimethylphenyl)amino]benzoate.AcOH]
[2]
  average fecal blood: none
[3]
  No. of Writhings: 15.6
  rate of writhings inhibition %: 55%
[4]
  body temperature t=0 min.: 37.35±0.06
  body temperature t=90 min.: 36.71±0.05
  body temperature t=180 min.: 36.60±0.08
  body temperature t=270 min.: 36.59±0.07
[5]
  LD50: 900 mg/kg
[6]
  analgesic activity, prolongation time of pain threshold (in words): shown analgesic activity nicely
[7]
  peak plasma levels: ~2 mg/mL
  time to peak levels after application of the donor systems: ~50 min
  difference in peak plasma levels, prodrugs versus parent drugs: approximately 200 times
Solubility in water
  solubility: > 400 mg/mL
[8]
  Apparent flux values: 2.1 mg/cm^2/h
  diffuses through human skin times faster than the parent drug: ~200 times

## CCN(CC)CCOC(=O)c1ccccc1Nc1c(Cl)ccc(C)c1Cl [diethylaminoethyl 2-[(2,6-dichloro-3-methylphenyl)amino]benzoate.AcOH]
[2]
  average fecal blood: none
[3]
  No. of Writhings: 14.2
  rate of writhings inhibition %: 59%
[4]
  body temperature t=0 min.: 37.28±0.06
  body temperature t=90 min.: 36.68±0.05
  body temperature t=180 min.: 36.62±0.08
  body temperature t=270 min.: 36.58±0.07
[5]
  LD50: 1000 mg/kg
[6]
  analgesic activity, prolongation time of pain threshold (in words): shown analgesic activity nicely
[7]
  peak plasma levels: ~2 mg/mL
  time to peak levels after application of the donor systems: ~50 min
  difference in peak plasma levels, prodrugs versus parent drugs: approximately 200 times
Solubility in water
  solubility: > 400 mg/mL
[8]
  Apparent flux values: 2.0 mg/cm^2/h
  diffuses through human skin times faster than the parent drug: ~200 times

## CCN(CC)CCOC(=O)c1cccnc1Nc1cccc(C(F)(F)F)c1C [diethylaminoethyl 2-[[2-methyl-3-(trifluoromethyl)phenyl]amino]-3-pyridinecarboxylate.AcOH]
[2]
  average fecal blood: none
[3]
  No. of Writhings: 15.7
  rate of writhings inhibition %: 55%
[4]
  body temperature t=0 min.: 37.23±0.06
  body temperature t=90 min.: 36.69±0.06
  body temperature t=180 min.: 36.52±0.08
  body temperature t=270 min.: 36.40±0.07
[5]
  LD50: 1100 mg/kg
[6]
  analgesic activity, prolongation time of pain threshold (in words): shown analgesic activity nicely
[7]
  peak plasma levels: ~2 mg/mL
  time to peak levels after application of the donor systems: ~50 min
  difference in peak plasma levels, prodrugs versus parent drugs: approximately 200 times
Solubility in water
  solubility in water: 400 mg/mL (≈ 1010 mM)
  solubility: > 450 mg/mL
[8]
  Apparent flux values: 1.7 mg/cm^2/h
  diffuses through human skin times faster than the parent drug: ~200 times

## CCN(CC)CCOC(=O)c1cccnc1Nc1cccc(C(F)(F)F)c1 [diethylaminoethyl 2-[[3-(trifluoromethyl)phenyl]amino]-3-pyridinecarboxylate.AcOH]
[2]
  average fecal blood: none
[3]
  No. of Writhings: 15.2
  rate of writhings inhibition %: 57%
[4]
  body temperature t=0 min.: 37.25±0.07
  body temperature t=90 min.: 36.82±0.06
  body temperature t=180 min.: 36.70±0.05
  body temperature t=270 min.: 36.50±0.08
[5]
  LD50: 750 mg/kg
[6]
  analgesic activity, prolongation time of pain threshold (in words): shown analgesic activity nicely
[7]
  peak plasma levels: ~2 mg/mL
  time to peak levels after application of the donor systems: ~50 min
  difference in peak plasma levels, prodrugs versus parent drugs: approximately 200 times
Solubility in water
  solubility in water: 400 mg/mL (≈ 1050 mM)
  solubility: > 450 mg/mL
[8]
  Apparent flux values: 1.8 mg/cm^2/h
  diffuses through human skin times faster than the parent drug: ~200 times

## CCN(CC)CCOC(=O)c1ccccc1Nc1cccc(C(F)(F)F)c1 [diethylaminoethyl 2-[[(3-(trifluoromethyl)phenyl)amino]benzoate.AcOH]
[2]
  average fecal blood: none
[3]
  No. of Writhings: 16.1
  rate of writhings inhibition %: 54%
[4]
  body temperature t=0 min.: 37.27±0.06
  body temperature t=90 min.: 36.76±0.05
  body temperature t=180 min.: 36.65±0.08
  body temperature t=270 min.: 36.49±0.07
[5]
  LD50: 800 mg/kg
[6]
  analgesic activity, prolongation time of pain threshold (in words): shown analgesic activity nicely
[7]
  peak plasma levels: ~2 mg/mL
  time to peak levels after application of the donor systems: ~50 min
  difference in peak plasma levels, prodrugs versus parent drugs: approximately 200 times
Solubility in water
  solubility: > 400 mg/mL
[8]
  Apparent flux values: 2.2 mg/cm^2/h
  diffuses through human skin times faster than the parent drug: ~200 times

## O=C(O)c1ccccc1Nc1cccc(C(F)(F)F)c1 [flufenamic acid, 2-[[(3-trifluoromethyl)phenyl]amino]benzoic acid]
[9]
  time to reach peak plasma level: 2 to 4 h
physchem
  solubility: < 0.1 mg/mL
[10]; [13]
  LD50: 715 mg/kg
[11]
  average fecal blood: 2-4 mg of fecal blood per gram of feces
[12]
  peak plasma levels: ~0.01 mg/mL

## Cc1c(Nc2ncccc2C(=O)O)cccc1C(F)(F)F [flunixin, 2-[[2-methyl-3-(trifluoromethyl)phenyl]amino]-3-pyridinecarboxylic acid]
[9]
  time to reach peak plasma level: 2 to 4 h
physchem
  solubility: < 0.1 mg/mL
[11]
  average fecal blood: 2-4 mg of fecal blood per gram of feces
[12]
  peak plasma levels: ~0.01 mg/mL

## Cc1ccc(Cl)c(Nc2ccccc2C(=O)O)c1Cl [meclofenamic acid, 2-[(2,6-dichloro-3-methylphenyl)amino]benzoic acid]
[9]
  time to reach peak plasma level: 2 to 4 h
physchem
  solubility: < 0.1 mg/mL
[11]
  average fecal blood: 2-4 mg of fecal blood per gram of feces
[12]
  peak plasma levels: ~0.01 mg/mL

## Cc1cccc(Nc2ccccc2C(=O)O)c1C [mefenamic acid, 2-[(2,3-Dimethylphenyl)amino]benzoic acid]
[9]
  time to reach peak plasma level: 2 to 4 h
physchem
  solubility: < 0.1 mg/mL
[10]; mouse, in vivo
  LD50: 600 mg/kg
[11]
  average fecal blood: 2-4 mg of fecal blood per gram of feces
[12]
  peak plasma levels: ~0.01 mg/mL

## O=C(O)c1cccnc1Nc1cccc(C(F)(F)F)c1 [niflumic acid, 2-[[3-(trifluoromethyl)phenyl]amino]-3-pyridinecarboxylic acid]
[9]
  time to reach peak plasma level: 2 to 4 h
physchem
  solubility: < 0.1 mg/mL
[10]; [13]
  LD50: 650 mg/kg
[11]
  average fecal blood: 2-4 mg of fecal blood per gram of feces
[12]
  peak plasma levels: ~0.01 mg/mL
